Reference: US6696069B2, “Skin care cosmetic compositions containing phosphates and/or sulfates of branched alcohols and/or ethoxylates thereof” (Unilever Home & Personal Care USA, division of Conopco, Inc., priority 2000, dated 2004)
Where “and” joins values, the source holds several entries; their conditions need not be identical. Identical values can stand only once. Counter-ions that a name gives are not always drawn. Marks after values point to notes of the source that are not given here.

Tests used:
[1] = system: Neonatal human dermal fibroblasts; experiment: Production of procollagen I by fibroblasts (slot blot, densitometry); assay type: cell-based; settings: for % Increase (+) or % decrease (−−) over control / Average OD (optical density) Reading / Fold increase Over Control: procollagen I; for % Increase (+) or % decrease (−−) over control: positive control, concentration not given; for collagen synthesis by fibroblasts (result in words): text summary of Tables 1 and 5
Method: This example measured production of procollagen I by fibroblasts in response to treatment with various straight chain and branched alcohols alone.
Procollagen I Staining Protocol for Slot Blot
Neonatal human dermal fibroblasts were purchased from Clonetics Corp., San Diego, Calif. All materials for cell culture were purchased from Life Technologies, NY (and used in passages 5-10). Cells were seeded at a density of approximately 10,000/well in the inner 48 wells of a 96-well plate in a medium containing DMEM (Dulbecco's Modified Eagle's Medium), high-glucose supplemented with 2 mM L-glutamine, 10% fetal bovine serum, and antibiotic and antimycotic solutions. Cells were then grown to confluence for 2 days. At confluence, the medium was removed and cells were washed with serum-free DMEM, and each well dosed with 200 μl of a solution of a test compound in serum-free DMEM. Each dosing was replicated in a total of six wells. […] After 24 hours, the test compound solution or the control solution was removed and cells redosed with 100 μl of a solution of a test compound in serum-free DMEM.
Nitrocellulose membrane and 3 sheets of filter paper were soaked in TRIS buffered saline (TBS, pH 7.3.). BioRad slot blot apparatus (BioRad Labs, CA) was set up with 3 sheets filter paper on bottom, membrane on top, and tightened. […] TBS was added per well. Vacuum was used to suck TBS through membrane. The test compound solution or control was vortexed, then 100 μl was loaded per well and gravity filtered. Procollagen from the test solution was bound to the membrane at this point in the procedure. Membrane was removed from the apparatus, excess cut off, and bottom right corner notched for orientation. The membrane was placed in blocking solution (5% milk powder in Dulbecco's phosphate buffered saline) overnight at 4° C., with shaking. The membrane was then incubated for 1.5 hrs at room temperature with 1.5 mL Rat Anti-Human Procollagen Amino-Terminal Ab (Chemicon MAB1912) in TBS with 0.1% BSA (Bovine Serum Albumin) (ratio of antibody to buffer/BSA was 1:100) in a sealed bag with shaking. The membrane was then removed; washed 3 times for 5 minutes in TBS/0.1% Tween. The membrane was then incubated for 1 hour at room temperature in 2 mL of Biotinylated Anti-Rat Peroxidase-Conjugated Ab (Vector Labs) in TBS with 0.1% BSA (ratio of antibody to buffer/BSA was 1:1000) in a sealed bag with shaking. The membrane was then stained using the following solution:
12.5 mg 3-amino 9-ethyl carbazole (Sigma)
3.125 (approximately) mL DMF (N,N-dimethylformamide, from Sigma)
The membrane was stained until color developed and the reaction stopped with 2 washes for 10 minutes in tap water. The blot was scanned on a Bio-Rad GS700 Image Analysis densitometer. Percent change from control was calculated from densitometer readings as follows: [(Reading for test compound−Reading for control)/Reading for control]*100. Control has a reading of 100%. Statistical significance (p value) was calculated using student's t-test.
TGF-B is a positive control, ensuring the integrity of the assay: transforming growth factor beta is known to increase procollagen I in fibroblasts.
This example measured production of procollagen I by fibroblasts in response to treatment with various test compounds.
The experiment was conducted as described in Example 1 above. Fold increase was calculated as a ratio of densitometer reading for cells treated with a test compound over control.

human sebocytes = experiment: Inhibition of sebocyte lipogenesis (14C-acetate incorporation); assay type: cell-based; settings: for lipogenesis inhibition (result in words): in combination with retinol, in comparison to either alone
[2] = lipogenesis, 1 μM + 1 μM Retinol
[3] = lipogenesis, 1 μM + 10 μM Retinol
[4] = lipogenesis, 10 μM + 1 μM Retinol
[5] = lipogenesis, 10 μM + 10 μM Retinol

Compound: TGF-B [reference compound]
- % Increase (+) or % decrease (−−) over control ([1]; Experiment 1): +50* %
- % Increase (+) or % decrease (−−) over control ([1]; Experiment 2): +140* %
- Average OD (optical density) Reading ([1]; Plate 1, 0.001%): 1.348
- Fold increase Over Control ([1]; Plate 1, 0.001%): 1.72
- Average OD (optical density) Reading ([1]; Plate 2, 0.001%): 1.653
- Fold increase Over Control ([1]; Plate 2, 0.001%): 1.65

Compound: CC1=C(/C=C/C(C)=C/C=C/C(C)=C/CO)C(C)(C)CCC1 [Retinol, reference compound]
- activity at 1 µM (human sebocytes; Homo sapiens, lipogenesis, 1 μM, alone, read-out: % of Control): 91.8%
- activity at 10 µM (human sebocytes; Homo sapiens, lipogenesis, 10 μM, alone, read-out: % of Control): 106%
- % of Control (human sebocytes; lipogenesis, 1 μM, alone): 97.4% and 93.2% and 91.5%
- % of Control (human sebocytes; lipogenesis, 10 μM, alone): 106.0% and 101.8%

Compound: Iso-tridecyl Phosphate
- Average OD (optical density) Reading ([1]; Plate 2, 0.0001%): 2.170
- Fold increase Over Control ([1]; Plate 2, 0.0001%): 2.17
- Average OD (optical density) Reading ([1]; Plate 2, 0.001%): 1.460
- Fold increase Over Control ([1]; Plate 2, 0.001%): 1.460
- collagen synthesis by fibroblasts (result in words) [1]: increased collagen production
- lipogenesis inhibition (result in words) (human sebocytes): enhanced inhibition of lipogenisis production
- % of Control (human sebocytes; [2]): 78.1* %
- % of Control (human sebocytes; [3]): 71.6* %
- % of Control (human sebocytes; [4]): 70.6* %
- % of Control (human sebocytes; [5]): 66.9* %
- % of Control (human sebocytes; lipogenesis, 100 μM + 1 μM Retinol): 74.1* %
- % of Control (human sebocytes; lipogenesis, 100 μM + 10 μM Retinol): 78.2%

Compound: Iso-tridecyl Sulfate
- Average OD (optical density) Reading ([1]; Plate 1, 0.0001%): 1.000
- Fold increase Over Control ([1]; Plate 1, 0.0001%): 1.28
- Average OD (optical density) Reading ([1]; Plate 1, 0.001%): 1.223
- Fold increase Over Control ([1]; Plate 1, 0.001%): 1.56
- collagen synthesis by fibroblasts (result in words) [1]: increased collagen production
- lipogenesis (result in words) (human sebocytes; alone or as a salt, Table 2): reduced lipogenesis production
- lipogenesis inhibition (result in words) (human sebocytes): improved lipogenesis inhibition
- % of Control (human sebocytes; [2]): 70.6* %
- % of Control (human sebocytes; [3]): 64.4* %
- % of Control (human sebocytes; lipogenesis, 1 μM, alone): 72.5* %
- % of Control (human sebocytes; [4]): 56.1* %
- % of Control (human sebocytes; [5]): 47.5* %
- % of Control (human sebocytes; lipogenesis, 10 μM, alone): 58.2* %
- % of Control (human sebocytes; lipogenesis, 35.6 μM, alone): 63.5%
- % of Control (human sebocytes; lipogenesis, 178 μM, alone): 18.1* %
- % of Control (human sebocytes; lipogenesis, 356 μM, alone): 7.4* %

Compound: CC(C)CCCCCCCCCCOS(=O)(=O)O [Iso-tridecyl Sulfate, sodium salt]
- activity at 33.1 µM (human sebocytes; Homo sapiens, lipogenesis, 33.1 μM, alone, read-out: % of Control): 54.9%
- activity at 165.5 µM (human sebocytes; Homo sapiens, lipogenesis, 165.5 μM, alone, read-out: % of Control): 14%
- activity at 331 µM (human sebocytes; Homo sapiens, lipogenesis, 331 μM, alone, read-out: % of Control): 5.5%

Compound: Iso-tridecyl Phosphate (Disodium salt)
- % of Control (human sebocytes; lipogenesis, 1 μM, alone): 90.7%
- % of Control (human sebocytes; lipogenesis, 10 μM, alone): 88.4%
- % of Control (human sebocytes; lipogenesis, 100 μM, alone): 88.3%

Compound: O=S1(=O)OC(c2ccc(O)cc2)(c2ccc(O)cc2)c2ccccc21 [Phenol Red, reference compound]
- activity at 28 µM (human sebocytes; Homo sapiens, lipogenesis, 28 μM, alone, read-out: % of Control): 91.9%
- activity at 280 µM (human sebocytes; Homo sapiens, lipogenesis, 280 μM, alone, read-out: % of Control): 58.1%
- % of Control (human sebocytes; lipogenesis, 28 μM, alone): 92.0% and 79.3% and 84.0%
- % of Control (human sebocytes; lipogenesis, 280 μM, alone): 61.7* % and 70.6* %
